This is an account of results in US10590140B2, “Tetrahydropyrimidodiazepine and dihydropyridodiazepine compounds for treating pain and pain related conditions” (ESTEVE PHARMACEUTICALS, S.A., priority 2016, dated 2020).

Structures are written as SMILES.

As a reminder, the Ki is the equilibrium dissociation constant of an inhibitor or competing ligand from its target.

human α2δ-1 subunit of Cav2.2 calcium channel, sequence (P54289 25-1103): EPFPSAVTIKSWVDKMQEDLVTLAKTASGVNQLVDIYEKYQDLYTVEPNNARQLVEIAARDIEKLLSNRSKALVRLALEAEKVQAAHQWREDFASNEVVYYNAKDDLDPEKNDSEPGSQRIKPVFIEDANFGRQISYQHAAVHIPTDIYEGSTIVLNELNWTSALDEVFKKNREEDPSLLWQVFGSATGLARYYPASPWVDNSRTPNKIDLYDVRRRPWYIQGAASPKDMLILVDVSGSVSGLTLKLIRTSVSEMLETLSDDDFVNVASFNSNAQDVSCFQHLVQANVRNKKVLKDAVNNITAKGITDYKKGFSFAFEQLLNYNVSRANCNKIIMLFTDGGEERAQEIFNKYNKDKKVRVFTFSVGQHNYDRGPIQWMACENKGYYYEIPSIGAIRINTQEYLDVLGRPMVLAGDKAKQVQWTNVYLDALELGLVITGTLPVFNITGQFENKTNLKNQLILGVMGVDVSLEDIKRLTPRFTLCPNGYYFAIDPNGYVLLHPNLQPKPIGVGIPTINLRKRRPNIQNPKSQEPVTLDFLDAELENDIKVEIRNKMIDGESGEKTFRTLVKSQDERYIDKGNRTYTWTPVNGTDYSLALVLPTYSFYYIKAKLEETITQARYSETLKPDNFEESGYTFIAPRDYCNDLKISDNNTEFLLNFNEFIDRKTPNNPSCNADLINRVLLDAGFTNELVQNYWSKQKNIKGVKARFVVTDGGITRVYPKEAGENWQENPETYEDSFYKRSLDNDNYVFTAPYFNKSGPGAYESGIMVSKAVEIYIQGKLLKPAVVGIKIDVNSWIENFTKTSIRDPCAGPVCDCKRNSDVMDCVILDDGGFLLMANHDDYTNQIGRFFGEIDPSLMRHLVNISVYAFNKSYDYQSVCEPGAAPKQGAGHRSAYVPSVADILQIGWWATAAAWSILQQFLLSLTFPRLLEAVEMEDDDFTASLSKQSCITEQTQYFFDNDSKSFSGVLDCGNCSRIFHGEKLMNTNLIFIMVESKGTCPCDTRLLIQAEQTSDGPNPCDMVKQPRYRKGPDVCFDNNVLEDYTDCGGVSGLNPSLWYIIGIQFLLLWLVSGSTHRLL

This test addresses human α2δ-1 subunit of Cav2.2 calcium channel (Homo sapiens (Human), UniProt P54289). The experiment in a line: Binding assay to human α2δ-1 subunit of Cav2.2 calcium channel ([3H]-Gabapentin). The settings on record: binding to α2δ-1, [3H]-Gabapentin; read-out: Ki (nM) α2δ-1. The method, boiled down:
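Radioactivity on dried GF/C filters quantified by scintillation after filtration and three cold Tris-HCl (pH 7.4) washes. Incubation ran 60 min at 27° C with [3H]-gabapentin; 10 μM pregabalin gave nonspecific binding.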
For `CCNc1ncc2c(n1)N(C)CCN(c1cccc(C(=O)O)c1)C2=O` [Example 313, 3-(2-(ethylamino)-9-methyl-5-oxo-5,7,8,9-tetrahydro-6H-pyrimido[4,5-e][1,4]diazepin-6-yl)benzoic acid], the Ki was above 3000 nM.

With `CCNc1ncc2c(n1)N(C)CCN(c1cccc(C(=O)N3CCC(c4ccccc4)(N(C)C)CC3)c1)C2=O` [Example 314, 6-(3-(4-(dimethylamino)-4-phenylpiperidine-1-carbonyl)phenyl)-2-(ethylamino)-9-methyl-6,7,8,9-tetrahydro-5H-pyrimido[4,5-e][1,4]diazepin-5-one], the Ki was above 3000 nM.

On to `CNCCC(OCc1cccc(N2CCN(C)c3ccncc3C2=O)c1)c1ccccc1` (stereo not drawn) [Example 317, 1-methyl-4-(3-((3-(methylamino)-1-phenylpropoxy)methyl)phenyl)-1,2,3,4-tetrahydro-5H-pyrido[4,3-e][1,4]diazepin-5-one], for which the Ki lay within 500 to 3000 nM.

As to `CNCCC(OCc1ccccc1N1CCN(C)c2nc(SC)ncc2C1=O)c1ccccc1` (stereo not drawn) [Example 318, 9-methyl-6-(2-((3-(methylamino)-1-phenylpropoxy)methyl)phenyl)-2-(methylthio)-6,7,8,9-tetrahydro-5H-pyrimido[4,5-e][1,4]diazepin-5-one], the Ki was above 3000 nM.

For `CNCC(Oc1ccccc1N1CCN(C)c2nc(SC)ncc2C1=O)c1ccccc1` (stereo not drawn) [Example 319, 9-methyl-6-(2-(2-(methylamino)-1-phenylethoxy)phenyl)-2-(methylthio)-6,7,8,9-tetrahydro-5H-pyrimido[4,5-e][1,4]diazepin-5-one], the Ki is above 3000 nM.

As for `CNCC(OCc1ccccc1N1CCN(C)c2nc(SC)ncc2C1=O)c1ccccc1` (stereo not drawn) [Example 320, 9-methyl-6-(2-((2-(methylamino)-1-phenylethoxy)methyl)phenyl)-2-(methylthio)-6,7,8,9-tetrahydro-5H-pyrimido[4,5-e][1,4]diazepin-5-one], the Ki was above 3000 nM.

On to `CNCC[C@H](OCc1cccc(N2CCN(C)c3nc(N)ncc3C2=O)c1)c1ccccc1` [Example 332, (S)-2-amino-9-methyl-6-(3-((3-(methylamino)-1-phenylpropoxy)methyl)phenyl)-6,7,8,9-tetrahydro-5H-pyrimido[4,5-e][1,4]diazepin-5-one], for which the Ki was above 3000 nM.

Take `CCNc1ncc2c(n1)N(C)CCN(c1ccccc1COC(CCNC)c1ccccc1)C2=O` (stereo not drawn) [Example 337, 2-(ethylamino)-9-methyl-6-(2-((3-(methylamino)-1-phenylpropoxy)methyl)phenyl)-6,7,8,9-tetrahydro-5H-pyrimido[4,5-e][1,4]diazepin-5-one]: the Ki was above 3000 nM.

As to `CCNc1ncc2c(n1)N(C)CCN(c1ccccc1OC(CNC)c1ccccc1)C2=O` (stereo not drawn) [Example 338, 2-(ethylamino)-9-methyl-6-(2-(2-(methylamino)-1-phenylethoxy)phenyl)-6,7,8,9-tetrahydro-5H-pyrimido[4,5-e][1,4]diazepin-5-one], the Ki is above 3000 nM.

Consider `CCNc1ncc2c(n1)N(C)CCN(c1ccccc1COC(CNC)c1ccccc1)C2=O` (stereo not drawn) [Example 339, 2-(ethylamino)-9-methyl-6-(2-((2-(methylamino)-1-phenylethoxy)methyl)phenyl)-6,7,8,9-tetrahydro-5H-pyrimido[4,5-e][1,4]diazepin-5-one], for which the inhibition constant (Ki) was above 3000 nM.

`CCNc1ncc2c(n1)N(C)CCN(c1cccc(COC(CCNCCF)c3cccs3)c1)C2=O` (stereo not drawn) [Example 345, 2-(ethylamino)-6-(3-((3-((2-fluoroethyl)amino)-1-(thiophen-2-yl)propoxy)methyl)phenyl)-9-methyl-6,7,8,9-tetrahydro-5H-pyrimido[4,5-e][1,4]diazepin-5-one]: the Ki lay in the range of 100 to 500 nM.

`CNCCC(Oc1ccc(N2CCN(C)c3ncncc3C2=O)cc1)c1ccccc1` (stereo not drawn) [Example 361, 9-methyl-6-(4-(3-(methylamino)-1-phenylpropoxy)phenyl)-6,7,8,9-tetrahydro-5H-pyrimido[4,5-e][1,4]diazepin-5-one]: the Ki was above 3000 nM.

With `CNCC(Oc1ccccc1N1CCN(C)c2ncncc2C1=O)c1ccccc1` (stereo not drawn) [Example 362, 9-methyl-6-(2-(2-(methylamino)-1-phenylethoxy)phenyl)-6,7,8,9-tetrahydro-5H-pyrimido[4,5-e][1,4]diazepin-5-one], the Ki is above 3000 nM.

Take `CNCCC(OCc1ccccc1CN1CCN(C)c2nc(SC)ncc2C1=O)c1ccccc1` (stereo not drawn) [Example 365, 9-methyl-6-(2-((3-(methylamino)-1-phenylpropoxy)methyl)benzyl)-2-(methylthio)-6,7,8,9-tetrahydro-5H-pyrimido[4,5-e][1,4]diazepin-5-one]: the Ki is above 3000 nM.

`CNCCC(Oc1ccccc1CN1CCN(C)c2nc(SC)ncc2C1=O)c1ccccc1` (stereo not drawn) [Example 370, 9-methyl-6-(2-(3-(methylamino)-1-phenylpropoxy)benzyl)-2-(methylthio)-6,7,8,9-tetrahydro-5H-pyrimido[4,5-e][1,4]diazepin-5-one]: the Ki is above 3000 nM.

For `CNCC(Oc1ccccc1CN1CCN(C)c2nc(SC)ncc2C1=O)c1ccccc1` (stereo not drawn) [Example 371, 9-methyl-6-(2-(2-(methylamino)-1-phenylethoxy)benzyl)-2-(methylthio)-6,7,8,9-tetrahydro-5H-pyrimido[4,5-e][1,4]diazepin-5-one], the Ki was above 3000 nM.

As for `CNCC(OCc1ccccc1CN1CCN(C)c2nc(SC)ncc2C1=O)c1ccccc1` (stereo not drawn) [Example 373, 9-methyl-6-(2-((2-(methylamino)-1-phenylethoxy)methyl)benzyl)-2-(methylthio)-6,7,8,9-tetrahydro-5H-pyrimido[4,5-e][1,4]diazepin-5-one], the Ki was above 3000 nM.

In the case of `CNCCC(Oc1ccc(CN2CCN(C)c3nc(OC)ncc3C2=O)cc1)c1ccccc1F` (stereo not drawn) [Example 376, 6-(4-(1-(2-fluorophenyl)-3-(methylamino)propoxy)benzyl)-2-methoxy-9-methyl-6,7,8,9-tetrahydro-5H-pyrimido[4,5-e][1,4]diazepin-5-one], the Ki was in the range of 500 to 3000 nM.

For the compound `CNCC[C@H](Oc1ccc(CN2CCN(C)c3ccncc3C2=O)cc1)c1ccccc1` [Example 377, (S)-1-methyl-4-(4-(3-(methylamino)-1-phenylpropoxy)benzyl)-1,2,3,4-tetrahydro-5H-pyrido[4,3-e][1,4]diazepin-5-one], the Ki lay in the range of 500 to 3000 nM.

With `CNCCC(Oc1ccc(CN2CCN(C)c3nc(OC)ncc3C2=O)cc1)c1nccs1` (stereo not drawn) [Example 390, 2-methoxy-9-methyl-6-(4-(3-(methylamino)-1-(thiazol-2-yl)propoxy)benzyl)-6,7,8,9-tetrahydro-5H-pyrimido[4,5-e][1,4]diazepin-5-one], the Ki was in the range of 100 to 500 nM.

For the compound `CNCC[C@H](Oc1ccc(CN2CCN(C)c3nc(OC)ncc3C2=O)cc1C)c1cccs1` [Example 393, (S)-2-methoxy-9-methyl-6-(3-methyl-4-(3-(methylamino)-1-(thiophen-2-yl)propoxy)benzyl)-6,7,8,9-tetrahydro-5H-pyrimido[4,5-e][1,4]diazepin-5-one], the inhibition constant Ki was 100 to 500 nM.

Take `CCN1CCN(Cc2ccc(O[C@@H](CCNC)c3cccs3)cc2)C(=O)c2cnc(OC)nc21` [Example 395]: the Ki fell in the range of 100 to 500 nM.

For `CNCCC(Oc1ccc(CN2CCN(C)c3nc(OC)ncc3C2=O)cc1)c1cc(C)cs1` (stereo not drawn) [Example 396, 2-methoxy-9-methyl-6-(4-(3-(methylamino)-1-(4-methylthiophen-2-yl)propoxy)benzyl)-6,7,8,9-tetrahydro-5H-pyrimido[4,5-e][1,4]diazepin-5-one], the Ki fell in the range of 100 to 500 nM.

As to `CNCC[C@H](Oc1ccc(CN2CCN(C)c3nc(OC)ncc3C2=O)c(C)c1)c1cccs1` [Example 397, (S)-2-methoxy-9-methyl-6-(2-methyl-4-(3-(methylamino)-1-(thiophen-2-yl)propoxy)benzyl)-6,7,8,9-tetrahydro-5H-pyrimido[4,5-e][1,4]diazepin-5-one], the Ki is below 100 nM.

`CCN1CCN(Cc2ccc(O[C@@H](CCNC)c3cccs3)cc2)C(=O)c2cncnc21` [Example 398, (S)-9-ethyl-6-(4-(3-(methylamino)-1-(thiophen-2-yl)propoxy)benzyl)-6,7,8,9-tetrahydro-5H-pyrimido[4,5-e][1,4]diazepin-5-one]: the Ki is 100 to 500 nM.

On to `CNCC[C@H](Oc1ccc(CN2CCN(C)c3c(F)cncc3C2=O)cc1)c1cccs1` [Example 399, (S)-9-fluoro-1-methyl-4-(4-(3-(methylamino)-1-(thiophen-2-yl)propoxy)benzyl)-1,2,3,4-tetrahydro-5H-pyrido[4,3-e][1,4]diazepin-5-one], for which the Ki is 100 to 500 nM.

For the compound `CNCC[C@H](Oc1ccc(CN2CCN(C)c3c(Cl)cncc3C2=O)cc1)c1cccs1` [Example 400, (S)-9-chloro-1-methyl-4-(4-(3-(methylamino)-1-(thiophen-2-yl)propoxy)benzyl)-1,2,3,4-tetrahydro-5H-pyrido[4,3-e][1,4]diazepin-5-one], the Ki lay within 500 to 3000 nM.

For the compound `CNCC[C@H](Oc1ccc(CN2CCN(C)c3nc(OC)ncc3C2=O)c(F)c1)c1cccs1` [Example 401, (S)-6-(2-fluoro-4-(3-(methylamino)-1-(thiophen-2-yl)propoxy)benzyl)-2-methoxy-9-methyl-6,7,8,9-tetrahydro-5H-pyrimido[4,5-e][1,4]diazepin-5-one], the inhibition constant Ki is below 100 nM.

`CCNc1ncc2c(n1)N(C)CCN(Cc1ccccc1COC(CCNC)c1ccccc1)C2=O` (stereo not drawn) [Example 404, 2-(ethylamino)-9-methyl-6-(2-((3-(methylamino)-1-phenylpropoxy)methyl)benzyl)-6,7,8,9-tetrahydro-5H-pyrimido[4,5-e][1,4]diazepin-5-one]: the Ki was above 3000 nM.

Consider `CCNc1ncc2c(n1)N(C)CCN(Cc1cccc(OC(CCNC)c3ccccc3)c1)C2=O` (stereo not drawn) [Example 407, 2-(ethylamino)-9-methyl-6-(3-(3-(methylamino)-1-phenylpropoxy)benzyl)-6,7,8,9-tetrahydro-5H-pyrimido[4,5-e][1,4]diazepin-5-one], for which the Ki was in the range of 100 to 500 nM.
